According to US9833497B2, “Human originated EGF domain proteins and use of the same” (CHENGDU SOURCEBIO LIMITED-LIABILITY COMPANY, priority 2013, dated 2017):

Tests used:
Format in all cases: cell-based
E. coli DH5α = experiment: Antibacterial activity: MIC and growth curve against E. coli DH5α in 96-well plate; conditions: minimal inhibitory concentration against E. coli DH5α; 96-well plate, 5×10^5 CFU/mL, 37° C., judged after 8 h
How it was run: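 MIC taken as lowest protein level with no bacterial growth, tracked by A600 every 30 min during 37 °C, 175 rpm culture. Two-fold protein series 50-12.5 μg/mL final, triplicate wells, against 5×10^5 CFU/mL of LB-washed mid-log cells.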

E. coli BL21 = experiment: MIC against Gram-negative bacteria: E. coli BL21
How it was run: (§1)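 MIC, the lowest recombinant protein concentration giving no bacterial growth, found by two-fold serial dilution of human EGF-domain proteins in triplicate. Inoculum 5×10^5 CFU/mL in LB from cultures at McFarland 0.5; plates incubated at 37° C, 175 rpm shaking.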

Pseudomonas aeruginosa = experiment: MIC against Gram-negative bacteria: Pseudomonas aeruginosa
How it was run: as §1

Klebsiella pneumonia = experiment: MIC against Gram-negative bacteria: Klebsiella pneumonia
How it was run: as §1

Enterobacter cloacae = experiment: MIC against Gram-negative bacteria: Enterobacter cloacae
How it was run: as §1

Aeromonas hydrophila = experiment: MIC against Gram-negative bacteria: Aeromonas hydrophila
How it was run: as §1

Citrobacter diversus = experiment: MIC against Gram-negative bacteria: Citrobacter diversus
How it was run: as §1

Moraxella catarrhalis = experiment: MIC against Gram-negative bacteria: Moraxella catarrhalis
How it was run: as §1

Proteus mirabilis = experiment: MIC against Gram-negative bacteria: Proteus mirabilis
How it was run: as §1

Proteus vulgaris = experiment: MIC against Gram-negative bacteria: Proteus vulgaris
How it was run: as §1

Serratia marcescens = experiment: MIC against Gram-negative bacteria: Serratia marcescens
How it was run: as §1

[1] = 10 h cultivation at 37° C., 5×10^5 CFU/mL, two-fold serial dilution
[2] = E. coli BL21, 10 h cultivation at 37° C.
[3] = P. aeruginosa, 10 h cultivation at 37° C.
[4] = K. pneumonia, 10 h cultivation at 37° C.
[5] = E. cloacae, 10 h cultivation at 37° C.
[6] = A. hydrophila, 10 h cultivation at 37° C.
[7] = C. diversus, 10 h cultivation at 37° C.
[8] = M. catarrhalis, 10 h cultivation at 37° C.
[9] = P. mirabilis, 10 h cultivation at 37° C.
[10] = P. vulgaris, 10 h cultivation at 37° C.
[11] = S. marcescens, 10 h cultivation at 37° C.

PRT1135 (NLDDCASRPCQRGARCRDRVHDFDCLCPSGYGGKTCE; listed as Homo sapiens)
MIC (E. coli DH5α): 25 µg/mL
MIC E. coli BL21 (E. coli BL21; [1]): 50 µg/mL
MIC P. aeruginosa (Pseudomonas aeruginosa; [1]): 100 µg/mL
MIC K. pneumonia (Klebsiella pneumonia; [1]): 50 µg/mL
MIC E. cloacae (Enterobacter cloacae; [1]): 25 µg/mL
MIC A. hydrophila (Aeromonas hydrophila; [1]): 25 µg/mL
MIC C. diversus (Citrobacter diversus; [1]): 12.5 µg/mL
MIC M. catarrhalis (Moraxella catarrhalis; [1]): 25 µg/mL
MIC P. mirabilis (Proteus mirabilis; [1]): 50 µg/mL
MIC P. vulgaris (Proteus vulgaris; [1]): 25 µg/mL
MIC S. marcescens (Serratia marcescens; [1]): 12.5 µg/mL

PRT38 (VRDLCGQRTTDACEQLCDPETGECSCHEGYAPDPVHRHLCV; listed as Homo sapiens)
MIC (E. coli DH5α): 50 µg/mL
MIC (μg/mL) E. coli BL21 (E. coli BL21; E. coli BL21, 96-well plate, 5×10^5 CFU/mL, 37° C., 10 h): 25 µg/mL
MIC (μg/mL) P. aeruginosa (Pseudomonas aeruginosa; Pseudomonas aeruginosa, 96-well plate, 5×10^5 CFU/mL, 37° C., 10 h): 12.5 µg/mL
MIC (μg/mL) K. pneumonia (Klebsiella pneumonia; Klebsiella pneumonia, 96-well plate, 5×10^5 CFU/mL, 37° C., 10 h): 50 µg/mL
MIC (μg/mL) E. cloacae (Enterobacter cloacae; Enterobacter cloacae, 96-well plate, 5×10^5 CFU/mL, 37° C., 10 h): 25 µg/mL
MIC (μg/mL) A. hydrophila (Aeromonas hydrophila; Aeromonas hydrophila, 96-well plate, 5×10^5 CFU/mL, 37° C., 10 h): 100 µg/mL
MIC (μg/mL) C. diversus (Citrobacter diversus; Citrobacter diversus, 96-well plate, 5×10^5 CFU/mL, 37° C., 10 h): 50 µg/mL
MIC (μg/mL) M. catarrhalis (Moraxella catarrhalis; Moraxella catarrhalis, 96-well plate, 5×10^5 CFU/mL, 37° C., 10 h): 12.5 µg/mL
MIC (μg/mL) P. mirabilis (Proteus mirabilis; Proteus mirabilis, 96-well plate, 5×10^5 CFU/mL, 37° C., 10 h): 25 µg/mL
MIC (μg/mL) P. vulgaris (Proteus vulgaris; Proteus vulgaris, 96-well plate, 5×10^5 CFU/mL, 37° C., 10 h): 50 µg/mL
MIC (μg/mL) S. marcescens (Serratia marcescens; Serratia marcescens, 96-well plate, 5×10^5 CFU/mL, 37° C., 10 h): 50 µg/mL

PRT1018 (DVDECETQGPPHCRNGGTCQNSAGSFHCVCVSGWGGTSCE; listed as Homo sapiens)
MIC (E. coli DH5α): 25 µg/mL
MIC (E. coli BL21; [2]): 12.5 µg/mL
MIC (Pseudomonas aeruginosa; [3]): 50 µg/mL
MIC (Klebsiella pneumonia; [4]): 12.5 µg/mL
MIC (Enterobacter cloacae; [5]): 25 µg/mL
MIC (Aeromonas hydrophila; [6]): 50 µg/mL
MIC (Citrobacter diversus; [7]): 12.5 µg/mL
MIC (Moraxella catarrhalis; [8]): 50 µg/mL
MIC (Proteus mirabilis; [9]): 12.5 µg/mL
MIC (Proteus vulgaris; [10]): 50 µg/mL
MIC (Serratia marcescens; [11]): 25 µg/mL

PRT975 (LVDWCSRQPCQNGGRCVQTGAYCLCPPGWSGRLCD; listed as Homo sapiens)
MIC (E. coli DH5α): 25 µg/mL
MIC (E. coli BL21; [2]): 12.5 µg/mL
MIC (Pseudomonas aeruginosa; [3]): 50 µg/mL
MIC (Klebsiella pneumonia; [4]): 12.5 µg/mL
MIC (Enterobacter cloacae; [5]): 25 µg/mL
MIC (Aeromonas hydrophila; [6]): 50 µg/mL
MIC (Citrobacter diversus; [7]): 12.5 µg/mL
MIC (Moraxella catarrhalis; [8]): 12.5 µg/mL
MIC (Proteus mirabilis; [9]): 50 µg/mL
MIC (Proteus vulgaris; [10]): 12.5 µg/mL
MIC (Serratia marcescens; [11]): 25 µg/mL

PRT1385 (GVRSCPGDCNQRGRCEDGRCVCWPGYTGTDC; listed as Homo sapiens)
MIC (E. coli DH5α): 12.5 µg/mL
MIC against E. coli BL21 (E. coli BL21; E. coli BL21, 5×10^5 CFU/mL, 10 h cultivation at 37° C.): 50 µg/mL
MIC against P. aeruginosa (Pseudomonas aeruginosa; Pseudomonas aeruginosa, 5×10^5 CFU/mL, 10 h cultivation at 37° C.): 12.5 µg/mL
MIC against K. pneumonia (Klebsiella pneumonia; Klebsiella pneumonia, 5×10^5 CFU/mL, 10 h cultivation at 37° C.): 50 µg/mL
MIC against E. cloacae (Enterobacter cloacae; Enterobacter cloacae, 5×10^5 CFU/mL, 10 h cultivation at 37° C.): 12.5 µg/mL
MIC against A. hydrophila (Aeromonas hydrophila; Aeromonas hydrophila, 5×10^5 CFU/mL, 10 h cultivation at 37° C.): 50 µg/mL
MIC against C. diversus (Citrobacter diversus; Citrobacter diversus, 5×10^5 CFU/mL, 10 h cultivation at 37° C.): 12.5 µg/mL
MIC against M. catarrhalis (Moraxella catarrhalis; Moraxella catarrhalis, 5×10^5 CFU/mL, 10 h cultivation at 37° C.): 50 µg/mL
MIC against P. mirabilis (Proteus mirabilis; Proteus mirabilis, 5×10^5 CFU/mL, 10 h cultivation at 37° C.): 12.5 µg/mL
MIC against P. vulgaris (Proteus vulgaris; Proteus vulgaris, 5×10^5 CFU/mL, 10 h cultivation at 37° C.): 25 µg/mL
MIC against S. marcescens (Serratia marcescens; Serratia marcescens, 5×10^5 CFU/mL, 10 h cultivation at 37° C.): 50 µg/mL

PRT830 (CALGNGGCQHHCVQLTITRHRCQCRPGFQLQEDGRHC; listed as Homo sapiens)
MIC (E. coli DH5α): 12.5 µg/mL
MIC (μg/mL) E. coli BL21 (E. coli BL21; E. coli BL21, 10 h cultivation at 37° C., 5×10^5 CFU/mL): 12.5 µg/mL
MIC (μg/mL) P. aeruginosa (Pseudomonas aeruginosa; P. aeruginosa, 10 h cultivation at 37° C., 5×10^5 CFU/mL): 12.5 µg/mL
MIC (μg/mL) K. pneumonia (Klebsiella pneumonia; K. pneumonia, 10 h cultivation at 37° C., 5×10^5 CFU/mL): 12.5 µg/mL
MIC (μg/mL) E. cloacae (Enterobacter cloacae; E. cloacae, 10 h cultivation at 37° C., 5×10^5 CFU/mL): 25 µg/mL
MIC (μg/mL) A. hydrophila (Aeromonas hydrophila; A. hydrophila, 10 h cultivation at 37° C., 5×10^5 CFU/mL): 12.5 µg/mL
MIC (μg/mL) C. diversus (Citrobacter diversus; C. diversus, 10 h cultivation at 37° C., 5×10^5 CFU/mL): 25 µg/mL
MIC (μg/mL) M. catarrhalis (Moraxella catarrhalis; M. catarrhalis, 10 h cultivation at 37° C., 5×10^5 CFU/mL): 12.5 µg/mL
MIC (μg/mL) P. mirabilis (Proteus mirabilis; P. mirabilis, 10 h cultivation at 37° C., 5×10^5 CFU/mL): 25 µg/mL
MIC (μg/mL) P. vulgaris (Proteus vulgaris; P. vulgaris, 10 h cultivation at 37° C., 5×10^5 CFU/mL): 12.5 µg/mL
MIC (μg/mL) S. marcescens (Serratia marcescens; S. marcescens, 10 h cultivation at 37° C., 5×10^5 CFU/mL): 12.5 µg/mL
